# Experiments:
# [1] = molecular target: T1, human Nav1.7 (Homo sapiens (Human), UniProt Q15858); assay: FLIPR sodium dye assay (CoroNa Green AM Na+ dye, primary fluorescence assay); assay type: cell-based; settings: recombinant human Nav1.7 in HEK293
# [2] = molecular target: T1, human Nav1.7; assay: FLIPR membrane potential dye assay (alternative fluorescence assay); assay type: cell-based
# T1 sequence (Q15858 other isoform, or with tags, fused parts or gaps): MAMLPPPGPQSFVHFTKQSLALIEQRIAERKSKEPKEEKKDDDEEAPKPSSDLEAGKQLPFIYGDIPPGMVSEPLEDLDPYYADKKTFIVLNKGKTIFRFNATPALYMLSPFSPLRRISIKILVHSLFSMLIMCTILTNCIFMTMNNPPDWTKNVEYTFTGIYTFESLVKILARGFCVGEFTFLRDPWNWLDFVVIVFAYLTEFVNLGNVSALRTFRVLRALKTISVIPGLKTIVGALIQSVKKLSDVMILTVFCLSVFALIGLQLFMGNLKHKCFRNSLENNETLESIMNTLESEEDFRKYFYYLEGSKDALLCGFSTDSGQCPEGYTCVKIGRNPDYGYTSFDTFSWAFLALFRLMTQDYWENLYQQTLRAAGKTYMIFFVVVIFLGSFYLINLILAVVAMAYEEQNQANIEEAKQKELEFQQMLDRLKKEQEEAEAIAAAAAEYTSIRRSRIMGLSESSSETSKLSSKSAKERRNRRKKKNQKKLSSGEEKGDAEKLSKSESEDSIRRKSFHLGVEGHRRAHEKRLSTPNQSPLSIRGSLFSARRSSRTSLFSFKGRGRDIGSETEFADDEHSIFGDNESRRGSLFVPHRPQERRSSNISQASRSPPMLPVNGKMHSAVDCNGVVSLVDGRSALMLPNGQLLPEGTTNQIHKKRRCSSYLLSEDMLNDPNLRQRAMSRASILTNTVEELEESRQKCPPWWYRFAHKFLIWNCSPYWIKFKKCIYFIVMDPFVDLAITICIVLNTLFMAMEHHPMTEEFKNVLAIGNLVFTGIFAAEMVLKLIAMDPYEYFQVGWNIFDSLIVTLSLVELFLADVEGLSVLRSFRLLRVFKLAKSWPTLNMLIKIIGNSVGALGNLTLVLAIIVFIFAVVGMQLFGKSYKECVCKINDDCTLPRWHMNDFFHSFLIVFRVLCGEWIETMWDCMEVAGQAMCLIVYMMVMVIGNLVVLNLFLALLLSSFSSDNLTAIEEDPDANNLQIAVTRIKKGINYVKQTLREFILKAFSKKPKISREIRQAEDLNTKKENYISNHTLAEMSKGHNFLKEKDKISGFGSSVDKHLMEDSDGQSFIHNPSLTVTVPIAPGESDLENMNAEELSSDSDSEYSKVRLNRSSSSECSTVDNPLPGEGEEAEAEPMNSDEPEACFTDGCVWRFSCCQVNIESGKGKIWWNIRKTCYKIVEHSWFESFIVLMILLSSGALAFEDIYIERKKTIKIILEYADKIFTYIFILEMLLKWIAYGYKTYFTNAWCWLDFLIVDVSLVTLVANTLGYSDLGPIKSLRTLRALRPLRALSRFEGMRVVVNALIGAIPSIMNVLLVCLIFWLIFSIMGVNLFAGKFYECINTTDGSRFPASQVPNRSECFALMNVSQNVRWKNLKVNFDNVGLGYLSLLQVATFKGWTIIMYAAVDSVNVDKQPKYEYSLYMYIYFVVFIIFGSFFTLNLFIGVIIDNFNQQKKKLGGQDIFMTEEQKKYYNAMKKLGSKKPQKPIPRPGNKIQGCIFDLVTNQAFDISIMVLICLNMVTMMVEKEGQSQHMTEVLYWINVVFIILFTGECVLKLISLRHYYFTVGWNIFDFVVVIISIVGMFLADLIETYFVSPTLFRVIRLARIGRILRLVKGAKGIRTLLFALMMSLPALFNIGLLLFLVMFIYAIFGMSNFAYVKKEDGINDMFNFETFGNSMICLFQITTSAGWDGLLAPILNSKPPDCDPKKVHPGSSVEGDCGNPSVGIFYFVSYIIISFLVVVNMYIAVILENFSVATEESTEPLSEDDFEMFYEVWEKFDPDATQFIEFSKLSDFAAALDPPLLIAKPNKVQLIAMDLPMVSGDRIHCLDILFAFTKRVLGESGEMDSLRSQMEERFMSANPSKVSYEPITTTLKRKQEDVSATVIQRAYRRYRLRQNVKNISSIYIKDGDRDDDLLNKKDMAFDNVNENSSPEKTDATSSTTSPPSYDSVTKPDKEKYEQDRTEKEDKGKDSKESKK
smiles,measurement,setting,value
"NC(=O)c1cc(N[C@H]2CCNC2=O)nc(N2CCC3(CC2)OCc2ccccc23)n1 [Compound 8, (S)-6-((2-oxopyrrolidin-3-yl)amino)-2-(3H-spiro[isobenzofuran-1,4′-piperidin]-1′-yl)pyrimidine-4-carboxamide]",IC50,[1],3.92 ± 0.466 µM
"NC(=O)c1cc(N[C@H]2CCNC2=O)nc(N2CCC3(C=Cc4ccccc43)CC2)n1 [Compound 9, (S)-6-((2-oxopyrrolidin-3-yl)amino)-2-(spiro[indene-1,4′-piperidin]-1′-yl)pyrimidine-4-carboxamide]",IC50,[1],1.3 ± 0.124 µM
"NC(=O)c1cc(N[C@H]2CCNC2=O)nc(N2CCC3(CC2)OC(=O)c2ccccc23)n1 [Compound 10, (S)-2-(3-oxo-3H-spiro [isobenzofuran-1,4′-piperidin]-1′-yl)-6-((2-oxopyrrolidin-3-yl)amino)pyrimidine-4-carboxamide]",IC50,[1],3.86 ± 0.39 µM
"NC(=O)c1cc(N[C@H]2CCNC2=O)nc(N2CCC3(CC2)C(=O)NCN3c2ccccc2)n1 [Compound 11, (S)-2-(4-oxo-1-phenyl-1,3,8-triazaspiro[4.5]decan-8-yl)-6-((2-oxopyrrolidin-3-yl)amino)pyrimidine-4-carboxamide]",IC50,[1],> 20 µM
"O=C1NC(=O)C2(CCN(c3ccc(Oc4ccc(F)cc4)cc3)CC2)N1 [Compound 12, 8-(4-(4-Fluorophenoxy)phenyl)-1,3,8-triazaspiro[4.5]decane-2,4-dione]",IC50,[2],> 20 µM
"O=C1NC(=O)C2(CCN(c3ccc(Oc4cccc(F)c4)cc3)CC2)N1 [Compound 13, 8-(4-(3-Fluorophenoxy)phenyl)-1,3,8-triazaspiro[4.5]decane-2,4-dione]",IC50,[2],1.54 ± 0.223 µM
"O=C1NC(=O)C2(CCN(c3ccc(Oc4cccc(C(F)(F)F)c4)cc3)CC2)N1 [Compound 14, 8-(4-(3-(Trifluoromethyl)phenoxy)phenyl)-1,3,8-triazaspiro[4.5]decane-2,4-dione]",IC50,[2],1.27 ± 0.38 µM
"O=C1NC(=O)C2(CCN(c3cc(-c4ccc(OC(F)(F)F)cc4)ccn3)CC2)N1 [Compound 15, 8-(4-(4-(trifluoromethoxy)phenyl)pyridin-2-yl)-1,3,8-triazaspiro[4.5]decane-2,4-dione]",IC50,[2],0.872 ± 0.117 µM
"O=C1NC(=O)C2(CCN(c3ccc(Oc4ccc(F)cc4)cn3)CC2)N1 [Compound 16, 8-(5-(4-Fluorophenoxy)pyridin-2-yl)-1,3,8-triazaspiro[4.5]decane-2,4-dione]",IC50,[2],4.48 ± 1.04 µM
"O=C1NC(=O)C2(CCN(c3ccc(Oc4ccc(C(F)(F)F)cc4)cn3)CC2)N1 [Compound 17, 8-(5-(4-(trifluoromethyl)phenoxy)pyridin-2-yl)-1,3,8-triazaspiro[4.5]decane-2,4-dione]",IC50,[2],1.73 ± 0.649 µM
"O=C1NC(=O)C2(CCN(c3ccc(Oc4cccc(C(F)(F)F)c4)cn3)CC2)N1 [Compound 18, 8-(5-(3-(trifluoromethyl)phenoxy)-pyridin-2-yl)-1,3,8-triazaspiro[4.5]decane-2,4-dione]",IC50,[2],1.44 ± 0.492 µM
"O=C1NC(=O)C2(CCN(c3ccc(Oc4ccc(C(F)(F)F)cc4)cc3)CC2)N1 [Compound 19, 8-(4-(4-(trifluoromethyl)phenoxy)phenyl)-1,3,8-triazaspiro[4.5]decane-2,4-dione]",IC50,[2],> 20 µM
"O=C1NC(=O)C2(CCN(c3ncccc3Oc3ccc(F)cc3)CC2)N1 [Compound 20, 8-(3-(4-Fluorophenoxy)pyridin-2-yl)-1,3,8-triazaspiro[4.5]decane-2,4-dione]",IC50,[2],> 20 µM
"O=C1NC(=O)C2(CCN(c3cc(-c4cccc(OC(F)(F)F)c4)ccn3)CC2)N1 [Compound 21, 8-(4-(3-(Trifluoromethoxy)phenyl)pyridin-2-yl)-1,3,8-triazaspiro[4.5]decane-2,4-dione]",IC50,[2],1.98 ± 0.309 µM

# From patent US9884865B2, “Azaspiro[4.5] decane derivatives and use thereof” (Purdue Pharma L.P., priority 2013, dated 2018)
